ChEMBL document CHEMBL2157909, “Design, synthesis, spectral and biological evaluation of novel 1-allyl substituted 2,6-diphenylpiperidin-4-ones and its derivatives of oximes/oxime ethers” (2012)
Converted amounts (≈) assume the structure as drawn.

Assays:
Penicillium chrysogenum = experiment: Antifungal activity against Penicillium chrysogenum ATCC 28089 after 72 to 96 hrs by two fold serial dilution method; format: functional
Aspergillus niger = experiment: Antifungal activity against Aspergillus niger ATCC 635 after 72 to 96 hrs by two fold serial dilution method; format: functional
Rhizopus = experiment: Antifungal activity against Rhizopus sp. ATCC 2842 after 72 to 96 hrs by two fold serial dilution method; format: functional
Fusarium oxysporum = experiment: Antifungal activity against Fusarium oxysporum ATCC 48112 after 72 to 96 hrs by two fold serial dilution method; format: functional
Salmonella typhi = experiment: Antibacterial activity against Salmonella typhi ATCC 25021 after 24 hrs by two fold serial dilution method; format: functional, Salmonella enterica subsp. enterica serovar Typhi; conditions: Salmonella enterica, ATCC 25021, 24 h
Aspergillus flavus = experiment: Antifungal activity against Aspergillus flavus ATCC 525 after 72 to 96 hrs by two fold serial dilution method; format: functional
Pseudomonas = experiment: Antibacterial activity against Pseudomonas ATCC 27853 after 24 hrs by two fold serial dilution method; format: functional; conditions: ATCC 27853, 24 h
Escherichia coli = experiment: Antibacterial activity against Escherichia coli ATCC 26032 after 24 hrs by two fold serial dilution method; format: functional; conditions: ATCC 26032, 24 h
Staphylococcus aureus = experiment: Antibacterial activity against Staphylococcus aureus ATCC 25930 after 24 hrs by two fold serial dilution method; format: functional; conditions: ATCC 25930, 24 h
Bacillus subtilis = experiment: Antibacterial activity against Bacillus subtilis ATCC 530 after 24 hrs by two fold serial dilution method; format: functional; conditions: ATCC 530, 24 h

Structure (SMILES)	MIC (Penicillium chrysogenum) [µg/mL]	MIC (Aspergillus niger) [µg/mL]	MIC (Rhizopus) [µg/mL]	MIC (Fusarium oxysporum) [µg/mL]	MIC (Salmonella typhi) [µg/mL]	MIC (Aspergillus flavus) [µg/mL]	MIC (Pseudomonas) [µg/mL]	MIC (Escherichia coli) [µg/mL]	MIC (Staphylococcus aureus) [µg/mL]	MIC (Bacillus subtilis) [µg/mL]
C=CCN1[C@@H](c2ccccc2)CC(=O)C[C@H]1c1ccccc1	12.5 (≈ 42.9 µM)	25 (≈ 85.8 µM)	50 (≈ 172 µM)	100 (≈ 343 µM)	50 (≈ 172 µM)	100 (≈ 343 µM)	25 (≈ 85.8 µM)	200 (≈ 686 µM)	6.25 (≈ 21.4 µM)	100 (≈ 343 µM)
C=CCN1[C@H](c2ccccc2)[C@@H](C)C(=O)[C@@H](C)[C@@H]1c1ccccc1	50 (≈ 157 µM)	100 (≈ 313 µM)	200 (≈ 626 µM)	50 (≈ 157 µM)	100 (≈ 313 µM)	100 (≈ 313 µM)	50 (≈ 157 µM)	100 (≈ 313 µM)	12.5 (≈ 39.1 µM)	25 (≈ 78.3 µM)
C=CCN1[C@@H](c2ccccc2)C/C(=N/O)C[C@H]1c1ccccc1 (relative stereo)	50 (≈ 163 µM)	12.5 (≈ 40.8 µM)	25 (≈ 81.6 µM)	50 (≈ 163 µM)	100 (≈ 326 µM)	25 (≈ 81.6 µM)	50 (≈ 163 µM)	25 (≈ 81.6 µM)	50 (≈ 163 µM)	6.25 (≈ 20.4 µM)
C=CCN1[C@H](c2ccccc2)[C@@H](C)/C(=N/O)[C@@H](C)[C@@H]1c1ccccc1 (relative stereo)	100 (≈ 299 µM)	50 (≈ 149 µM)	200 (≈ 598 µM)	50 (≈ 149 µM)	100 (≈ 299 µM)	100 (≈ 299 µM)	50 (≈ 149 µM)	50 (≈ 149 µM)	50 (≈ 149 µM)	25 (≈ 74.7 µM)
C=CCN1[C@H](c2ccccc2)C/C(=N\O)[C@@H](CC)[C@@H]1c1ccccc1 (relative stereo)	50 (≈ 149 µM)	12.5 (≈ 37.4 µM)	50 (≈ 149 µM)	25 (≈ 74.7 µM)	25 (≈ 74.7 µM)	6.25 (≈ 18.7 µM)	50 (≈ 149 µM)	100 (≈ 299 µM)	25 (≈ 74.7 µM)	12.5 (≈ 37.4 µM)
C=CCN1[C@@H](c2ccccc2)C(C)(C)/C(=N/O)C[C@H]1c1ccccc1 (relative stereo)	12.5 (≈ 37.4 µM)	25 (≈ 74.7 µM)	25 (≈ 74.7 µM)	50 (≈ 149 µM)	100 (≈ 299 µM)	25 (≈ 74.7 µM)	50 (≈ 149 µM)	100 (≈ 299 µM)	12.5 (≈ 37.4 µM)	25 (≈ 74.7 µM)
C=CCN1[C@H](c2ccccc2)C/C(=N\OCc2ccccc2)[C@@H](C)[C@@H]1c1ccccc1 (relative stereo)	100 (≈ 244 µM)	50 (≈ 122 µM)	25 (≈ 60.9 µM)	200 (≈ 487 µM)	12.5 (≈ 30.4 µM)	50 (≈ 122 µM)	50 (≈ 122 µM)	25 (≈ 60.9 µM)	50 (≈ 122 µM)	6.25 (≈ 15.2 µM)
C=CCN1[C@H](c2ccc(C)cc2)C/C(=N\OCc2ccccc2)[C@@H](C)[C@@H]1c1ccc(C)cc1 (relative stereo)	6.25 (≈ 14.2 µM)	12.5 (≈ 28.5 µM)	50 (≈ 114 µM)	100 (≈ 228 µM)	50 (≈ 114 µM)	100 (≈ 228 µM)	100 (≈ 228 µM)	200 (≈ 456 µM)	100 (≈ 228 µM)	50 (≈ 114 µM)
C=CCN1[C@H](c2ccc(Cl)cc2)C/C(=N\OCc2ccccc2)[C@@H](C)[C@@H]1c1ccc(Cl)cc1 (relative stereo)	6.25 (≈ 13 µM)	25 (≈ 52.1 µM)	6.25 (≈ 13 µM)	25 (≈ 52.1 µM)	50 (≈ 104 µM)	12.5 (≈ 26.1 µM)	100 (≈ 209 µM)	12.5 (≈ 26.1 µM)	6.25 (≈ 13 µM)	25 (≈ 52.1 µM)
C=CCN1[C@H](c2ccc(OC)cc2)C/C(=N\OCc2ccccc2)[C@@H](C)[C@@H]1c1ccc(OC)cc1 (relative stereo)	50 (≈ 106 µM)	12.5 (≈ 26.6 µM)	25 (≈ 53.1 µM)	6.25 (≈ 13.3 µM)	25 (≈ 53.1 µM)	100 (≈ 212 µM)	6.25 (≈ 13.3 µM)	100 (≈ 212 µM)	12.5 (≈ 26.6 µM)	50 (≈ 106 µM)
C=CCN1[C@@H](c2ccccc2)C/C(=N/OCc2ccccc2)C[C@H]1c1ccccc1 (relative stereo)	100 (≈ 252 µM)	12.5 (≈ 31.5 µM)	50 (≈ 126 µM)	50 (≈ 126 µM)	100 (≈ 252 µM)	100 (≈ 252 µM)	200 (≈ 504 µM)	6.25 (≈ 15.8 µM)	50 (≈ 126 µM)	25 (≈ 63 µM)
C=CCN1[C@H](c2ccccc2)[C@@H](C)/C(=N/OCc2ccccc2)[C@@H](C)[C@@H]1c1ccccc1 (relative stereo)	50 (≈ 118 µM)	200 (≈ 471 µM)	100 (≈ 236 µM)	50 (≈ 118 µM)	50 (≈ 118 µM)	100 (≈ 236 µM)	25 (≈ 58.9 µM)	100 (≈ 236 µM)	12.5 (≈ 29.4 µM)	100 (≈ 236 µM)
